Key:
Assay type in all cases: functional
[1] = system: MDA-MB-435; assay: Cytotoxicity against human MDA-MB-435 cells assessed as cell growth level at 100 uM after 48 hrs by sulforhodamine B assay
[2] = system: UACC-257; assay: Cytotoxicity against human UACC257 cells assessed as cell growth level at 100 uM after 48 hrs by sulforhodamine B assay
[3] = system: OVCAR-3; assay: Cytotoxicity against human OVCAR3 cells assessed as cell growth level at 100 uM after 48 hrs by sulforhodamine B assay
[4] = system: BT-549; assay: Cytotoxicity against human BT549 cells assessed as cell growth level at 10 nM after 48 hrs by sulforhodamine B assay
[5] = system: NCI-H460; assay: Cytotoxicity against human NCI-H460 cells assessed as cell growth level at 100 nM after 48 hrs by sulforhodamine B assay
[6] = system: HCC 2998; assay: Cytotoxicity against human HCC2998 cells assessed as cell growth level at 100 nM after 48 hrs by sulforhodamine B assay
[7] = system: U-251; assay: Cytotoxicity against human U251 cells assessed as cell growth level at 100 nM after 48 hrs by sulforhodamine B assay
[8] = system: M14; assay: Cytotoxicity against human M14 cells assessed as cell growth level at 100 nM after 48 hrs by sulforhodamine B assay
[9] = system: SK-MEL-28; assay: Cytotoxicity against human SK-MEL-28 cells assessed as cell growth level at 100 nM after 48 hrs by sulforhodamine B assay
[10] = system: OVCAR-3; assay: Cytotoxicity against human OVCAR3 cells assessed as cell growth level at 100 nM after 48 hrs by sulforhodamine B assay
[11] = system: OVCAR-5; assay: Cytotoxicity against human OVCAR5 cells assessed as cell growth level at 100 nM after 48 hrs by sulforhodamine B assay
[12] = system: Bacillus subtilis; assay: Antibacterial activity against Bacillus subtilis assessed as bacterial growth inhibition at 50 ug/ml after 24 hrs by cup-plate agar diffusion method; settings: read-out: IZ
[13] = system: K562; assay: Cytotoxicity against human K562 cells assessed as cell growth level at 10 uM after 48 hrs by sulforhodamine B assay
[14] = system: MCF7; assay: Cytotoxicity against human MCF7 cells assessed as cell growth level at 100 nM after 48 hrs by sulforhodamine B assay
[15] = system: NCI-H322M; assay: Cytotoxicity against human NCI-H322M cells assessed as cell growth level at 1 uM after 48 hrs by sulforhodamine B assay
[16] = system: NCI-H522; assay: Cytotoxicity against human NCI-H522 cells assessed as cell growth level at 10 uM after 48 hrs by sulforhodamine B assay
[17] = system: HCT-15; assay: Cytotoxicity against human HCT15 cells assessed as cell growth level at 10 uM after 48 hrs by sulforhodamine B assay
[18] = system: SF-295; assay: Cytotoxicity against human SF295 cells assessed as cell growth level at 10 uM after 48 hrs by sulforhodamine B assay
[19] = system: MDA-MB-435; assay: Cytotoxicity against human MDA-MB-435 cells assessed as cell growth level at 10 uM after 48 hrs by sulforhodamine B assay
[20] = system: SK-MEL-5; assay: Cytotoxicity against human SK-MEL-5 cells assessed as cell growth level at 10 uM after 48 hrs by sulforhodamine B assay
[21] = system: PC-3; assay: Cytotoxicity against human PC3 cells assessed as cell growth level at 10 uM after 48 hrs by sulforhodamine B assay
[22] = system: MDA-MB-435; assay: Cytotoxicity against human MDA-MB-435 cells assessed as cell growth level at 1 uM after 48 hrs by sulforhodamine B assay
[23] = system: SK-MEL-5; assay: Cytotoxicity against human SK-MEL-5 cells assessed as cell growth level at 1 uM after 48 hrs by sulforhodamine B assay
[24] = Cytotoxicity against human NCI-ADR-RES cells assessed as cell growth level at 1 uM after 48 hrs by sulforhodamine B assay
[25] = system: MDA-MB-468; assay: Cytotoxicity against human MDA-MB-468 cells assessed as cell growth level at 1 uM after 48 hrs by sulforhodamine B assay
[26] = system: BT-549; assay: Cytotoxicity against human BT549 cells assessed as cell growth level at 10 uM after 48 hrs by sulforhodamine B assay
[27] = system: T47D; assay: Cytotoxicity against human T47D cells assessed as cell growth level at 10 uM after 48 hrs by sulforhodamine B assay
[28] = system: MOLT-4; assay: Cytotoxicity against human MOLT4 cells after 48 hrs by sulforhodamine B assay; settings: MOLT-4, 48 h
[29] = system: SR; assay: Cytotoxicity against human SR cells after 48 hrs by sulforhodamine B assay
[30] = system: HOP-62; assay: Cytotoxicity against human HOP62 cells after 48 hrs by sulforhodamine B assay; settings: HOP-62, 48 h
[31] = system: NCI-H522; assay: Cytotoxicity against human NCI-H522 cells after 48 hrs by sulforhodamine B assay; settings: NCI-H522, 48 h
[32] = system: SW-620; assay: Cytotoxicity against human SW620 cells assessed as cell growth level at 100 uM after 48 hrs by sulforhodamine B assay
[33] = system: SF-268; assay: Cytotoxicity against human SF268 cells assessed as cell growth level at 100 uM after 48 hrs by sulforhodamine B assay
[34] = system: SF-539; assay: Cytotoxicity against human SF539 cells assessed as cell growth level at 100 uM after 48 hrs by sulforhodamine B assay
[35] = system: OVCAR-8; assay: Cytotoxicity against human OVCAR8 cells after 48 hrs by sulforhodamine B assay; settings: OVCAR-8, 48 h
[36] = system: RXF 393; assay: Cytotoxicity against human RXF393 cells after 48 hrs by sulforhodamine B assay; settings: RXF 393, 48 h
[37] = system: MOLT-4; assay: Cytotoxicity against human MOLT4 cells assessed as cell growth level at 10 nM after 48 hrs by sulforhodamine B assay
[38] = system: A549; assay: Cytotoxicity against human A549/ATCC cells assessed as cell growth level at 10 nM after 48 hrs by sulforhodamine B assay
[39] = system: HOP-92; assay: Cytotoxicity against human HOP92 cells assessed as cell growth level at 10 nM after 48 hrs by sulforhodamine B assay
[40] = read-out: LC50 (the source's name)
[41] = read-out: pLC50 (the source's name) (converted)

In the case of `O=c1oc2ccccc2cc1-c1csc(N/N=C/c2c[nH]c3ccccc23)n1`, the Activity [1] is reported as -69%, the Activity [2] is reported as -89% and the Activity [3] is reported as -2%. For the same compound, the Activity [4] was 95%, the Activity [5] was 93% and the Activity [6] was 97%. The Activity [7] was 108%, the Activity [8] was 92% and the Activity [9] was 91%. It also gave an Activity [10] of 90%, an Activity [11] of 99% and a zone of inhibition at 50 µg/mL [12] of 18 mm. For the same compound, the Activity [13] was 0.99%, the Activity [14] was 95% and the Activity [15] was 92%. For the same compound, the Activity [16] was -77.8%, the Activity [17] was 12.32% and the Activity [18] was -25.04%. It also gave an Activity [19] of 22.44%, an Activity [20] of 69.78% and an Activity [21] of -37.33%. The Activity [22] was 79%, the Activity [23] was 90% and the Activity [24] was 104%. It also gave an Activity [25] of 72%, an Activity [26] of -12.14% and an Activity [27] of 4.07%. The GI50 ([28]; read-out: GI50) was 0.4 µM, the LC50 ([28]; read-out: LC50) was greater than 100 µM and the TGI ([28]; read-out: TGI) was 3.27 µM. For the same compound, the GI50 ([28]; read-out: pGI50 (converted)) was 0.407 µM, the LC50 ([28]; read-out: pLC50 (converted)) was greater than 100 µM and the TGI ([28]; read-out: pTGI (converted)) was 3.24 µM. It also gave a GI50 ([29]; read-out: GI50) of 1.83 µM, an LC50 ([29]; read-out: LC50) greater than 100 µM and a TGI ([29]; read-out: TGI) of 4.92 µM. The GI50 ([29]; read-out: pGI50 (converted)) was 1.82 µM, the LC50 ([29]; read-out: pLC50 (converted)) was greater than 100 µM and the TGI ([29]; read-out: pTGI (converted)) was 4.9 µM. It also gave a GI50 ([30]; read-out: GI50) of 3.73 µM, an LC50 ([30]; read-out: LC50) greater than 100 µM and a TGI ([30]; read-out: TGI) of 20 µM. It also gave a GI50 ([30]; read-out: pGI50 (converted)) of 3.72 µM, an LC50 ([30]; read-out: pLC50 (converted)) greater than 100 µM and a TGI ([30]; read-out: pTGI (converted)) of 20 µM. For the same compound, the GI50 ([31]; read-out: GI50) was 1.03 µM, the LC50 (50% lethal concentration) ([31]; read-out: LC50) was 4.96 µM and the TGI ([31]; read-out: TGI) was 2.26 µM. For the same compound, the GI50 ([31]; read-out: pGI50 (converted)) was 1.02 µM, the LC50 (50% lethal concentration) ([31]; read-out: pLC50 (converted)) was 5.01 µM and the TGI ([31]; read-out: pTGI (converted)) was 2.24 µM. The Activity [32] was -7%, the Activity [33] was -21% and the Activity [34] was -4%. It also gave a GI50 ([35]; read-out: GI50) of 1.9 µM, a CC50 [35, 40] greater than 100 µM and a TGI ([35]; read-out: TGI) of 4.56 µM. The GI50 ([35]; read-out: pGI50 (converted)) was 1.91 µM, the CC50 [35, 41] was greater than 100 µM and the TGI ([35]; read-out: pTGI (converted)) was 4.57 µM. The GI50 ([36]; read-out: GI50) was 1.97 µM, the CC50 [36, 40] was 33.9 µM and the TGI ([36]; read-out: TGI) was 4.77 µM. It also gave a GI50 ([36]; read-out: pGI50 (converted)) of 1.95 µM, a CC50 [36, 41] of 33.9 µM and a TGI ([36]; read-out: pTGI (converted)) of 4.79 µM. It also gave an Activity [37] of 92%, an Activity [38] of 94% and an Activity [39] of 100%.

— ChEMBL document CHEMBL3580659, “One-pot multicomponent synthesis of indole incorporated thiazolylcoumarins and their antibacterial, anticancer and DNA cleavage studies” (2015)
